Measured values as given in ChEMBL document CHEMBL1201862, “PubChem BioAssay data set” (2004).
Active and inactive are the calls of the source.

How the values were obtained:
[1] = target: DNA dC->dU-editing enzyme APOBEC-3G (Homo sapiens, UniProt Q9HC16); test: Dose Response confirmation of small molecule APOBEC3G DNA Deaminase Inhibitors via a fluorescence-based single-stranded DNA deaminase assay. [Related pubchem assays (depositor defined):AID493012, AID493028]; type: functional
[2] = target: DNA dC->dU-editing enzyme APOBEC-3A (Homo sapiens, UniProt P31941); test: A3A deaminase inhibition for selectivity – biochemical, dose response (AID 504722); type: functional
Estrogen receptor = target: T1, Estrogen receptor (Homo sapiens, UniProt P03372);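 also: potency for inhibiting coactivator peptide recruitment to the receptor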
T1 sequence (P03372 whole entry): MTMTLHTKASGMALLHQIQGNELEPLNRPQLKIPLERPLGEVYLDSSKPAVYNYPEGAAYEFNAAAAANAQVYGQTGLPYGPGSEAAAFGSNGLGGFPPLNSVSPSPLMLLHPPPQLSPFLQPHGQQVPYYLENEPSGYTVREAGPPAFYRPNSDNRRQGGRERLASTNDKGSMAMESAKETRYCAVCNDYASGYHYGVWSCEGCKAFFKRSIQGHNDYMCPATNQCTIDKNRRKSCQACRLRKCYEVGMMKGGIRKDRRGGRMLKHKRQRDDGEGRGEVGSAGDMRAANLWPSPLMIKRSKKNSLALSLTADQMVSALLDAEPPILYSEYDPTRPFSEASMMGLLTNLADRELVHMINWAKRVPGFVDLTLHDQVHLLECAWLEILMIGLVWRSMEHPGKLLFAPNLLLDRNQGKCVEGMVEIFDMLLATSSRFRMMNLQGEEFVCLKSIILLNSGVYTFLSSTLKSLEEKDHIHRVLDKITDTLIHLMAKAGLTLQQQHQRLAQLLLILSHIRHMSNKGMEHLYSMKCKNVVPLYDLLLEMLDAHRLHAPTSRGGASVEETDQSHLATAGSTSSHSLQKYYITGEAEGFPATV

[3] = target: T2, Endoribonuclease toxin MazF (Escherichia coli K-12, UniProt P0AE70); test: substrate-only fluorescence increase artefacts – biochemical, single-stranded RNase substrate, counter-screen for MazEF activator project, dose response (AID 588502); type: functional
T2 sequence (P0AE70 whole entry): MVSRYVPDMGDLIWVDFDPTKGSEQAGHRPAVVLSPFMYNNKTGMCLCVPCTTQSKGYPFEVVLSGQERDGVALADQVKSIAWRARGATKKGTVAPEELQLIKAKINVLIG

[4] = target: T2, Endoribonuclease toxin MazF; test: activation of MazEF endoribonuclease cleavage – biochemical, fluorescence, single-stranded RNA substrate, uHTS hits, dose response (AID 588481); type: functional
Leucine aminopeptidase = target: T3, Leucine aminopeptidase (Plasmodium falciparum 3D7, UniProt Q8IL11); test: P. falciparum M17LAP inhibitors, primary screen, biochemical, fluorogenic H-Leu-NHMec substrate, 1536-well (AID 1619); type: functional
T3 sequence (Q8IL11 whole entry): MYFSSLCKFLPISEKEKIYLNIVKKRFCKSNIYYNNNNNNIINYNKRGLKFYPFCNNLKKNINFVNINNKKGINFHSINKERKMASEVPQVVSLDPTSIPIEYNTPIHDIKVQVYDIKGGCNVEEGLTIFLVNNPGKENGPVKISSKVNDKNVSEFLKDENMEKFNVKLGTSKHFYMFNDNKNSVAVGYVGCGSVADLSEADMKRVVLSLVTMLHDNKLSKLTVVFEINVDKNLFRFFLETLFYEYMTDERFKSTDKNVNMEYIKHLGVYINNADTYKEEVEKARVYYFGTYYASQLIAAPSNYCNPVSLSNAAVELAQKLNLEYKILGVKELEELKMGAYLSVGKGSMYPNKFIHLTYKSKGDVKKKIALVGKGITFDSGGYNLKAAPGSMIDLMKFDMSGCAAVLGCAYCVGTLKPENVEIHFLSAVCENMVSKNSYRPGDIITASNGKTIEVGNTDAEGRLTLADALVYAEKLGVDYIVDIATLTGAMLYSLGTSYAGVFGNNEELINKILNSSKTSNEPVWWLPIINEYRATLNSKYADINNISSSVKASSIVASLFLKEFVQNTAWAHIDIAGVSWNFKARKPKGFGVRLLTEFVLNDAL

[5] = target: Voltage-dependent T-type calcium channel subunit alpha-1H (Homo sapiens, UniProt O95180); type: functional;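 also: channel activity triggered by adding a high calcium stimulation buffer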
Aminopeptidase N = target: T4, Aminopeptidase N (Plasmodium falciparum FcB1/Columbia, UniProt O96935); test: malaria alanyl aminopeptidase activity blockers – biochemical, fluorogenic H-Leu-NHMec substrate, 1536-well (AID 1445); design: species or system Plasmodium falciparum 3D7, 3D7
T4 sequence (O96935 whole entry): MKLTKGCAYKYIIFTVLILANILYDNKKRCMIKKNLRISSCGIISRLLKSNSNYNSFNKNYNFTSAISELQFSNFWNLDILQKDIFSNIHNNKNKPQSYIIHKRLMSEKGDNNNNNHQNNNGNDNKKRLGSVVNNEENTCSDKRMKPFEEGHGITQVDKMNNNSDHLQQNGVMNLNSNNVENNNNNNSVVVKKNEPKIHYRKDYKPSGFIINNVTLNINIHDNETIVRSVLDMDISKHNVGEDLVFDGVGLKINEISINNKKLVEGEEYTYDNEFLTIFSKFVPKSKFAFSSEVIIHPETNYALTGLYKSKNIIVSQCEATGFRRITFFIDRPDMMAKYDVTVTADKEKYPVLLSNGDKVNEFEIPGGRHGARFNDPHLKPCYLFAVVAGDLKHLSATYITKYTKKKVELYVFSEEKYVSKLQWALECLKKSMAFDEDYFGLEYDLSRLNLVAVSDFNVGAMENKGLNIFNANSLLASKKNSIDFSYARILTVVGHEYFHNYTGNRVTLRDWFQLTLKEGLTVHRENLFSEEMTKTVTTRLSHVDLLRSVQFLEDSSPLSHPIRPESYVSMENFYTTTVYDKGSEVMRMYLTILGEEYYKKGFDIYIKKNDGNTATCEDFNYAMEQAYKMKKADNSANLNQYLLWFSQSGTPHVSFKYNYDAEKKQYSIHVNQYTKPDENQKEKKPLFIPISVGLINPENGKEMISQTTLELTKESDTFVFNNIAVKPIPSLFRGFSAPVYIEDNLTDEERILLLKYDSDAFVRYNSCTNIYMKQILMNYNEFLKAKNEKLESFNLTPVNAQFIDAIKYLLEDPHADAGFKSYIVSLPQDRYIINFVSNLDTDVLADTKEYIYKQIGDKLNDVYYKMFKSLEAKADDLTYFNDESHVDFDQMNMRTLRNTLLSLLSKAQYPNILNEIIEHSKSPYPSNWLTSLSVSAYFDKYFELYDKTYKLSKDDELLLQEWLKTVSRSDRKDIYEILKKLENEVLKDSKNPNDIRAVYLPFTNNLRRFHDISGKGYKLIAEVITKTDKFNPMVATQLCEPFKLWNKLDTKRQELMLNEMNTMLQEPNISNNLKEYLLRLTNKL

[6] = target: T5, Polyadenylate-binding protein 1 (Homo sapiens, UniProt P11940); test: MLLE domain peptide-binding blockers, IC50 – biochemical, fluorescence polarization, FITC-PAM2 peptide, dose response (AID 602259); type: functional; conditions: read-out: IC50_Mean
[7] = target: T5, Polyadenylate-binding protein 1; test: MLLE binding blockers, Cy5 peptide tracer – biochemical, fluorescence polarization, Cy5-PAM2 peptide, secondary, miRNA deadenylation inhibitor project, dose response (AID 602260); type: functional; conditions: read-out: IC50_Mean
Fatty acid synthase [8] = target: T6, Fatty acid synthase (Homo sapiens, UniProt P49327); test: inhibition of human FAS-TE enzyme activity – biochemical, endpoint fluorescence intensity, uHTS hits, dose response (AID 624327); type: functional;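 also: fluorescence from hydrolysis of an O-methyl fluorescein acyl ester substrate by the enzyme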
Fatty acid synthase [9] = target: T6, Fatty acid synthase; test: inhibition of human FAS-TE enzyme activity – biochemical, kinetic fluorescence intensity, dose response (AID 624326); type: functional;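 also: rate of fluorescence rise from hydrolysis of a fluorogenic O-methyl fluorescein ester substrate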
[10] = Luminescence Cell-Based Dose Confirmation HTS to Identify Activators of 5'UTR Stem-Loop Driven Alpha-Synuclein mRNA Translation in H4 Neuroglioblastoma Cells. [Related pubchem assays: 1829 (Project Summary), 1814 (Primary HTS)]; type: functional
[11] = Luminescence Cell-Based Dose Response HTS to Identify Activators of Luciferase Translation or Activity in H4 […] Cells. [Related pubchem assays: 1829 (Project Summary), 1814 (Primary HTS)]; type: functional
H4 = test: Luminescence Cell-Based Dose Response HTS to Identify Activators of 5'UTR Stem-Loop Driven Prion Protein mRNA Translation in H4 Neuroglioblastoma Cells. [Related pubchem assays: 1829 (Project Summary), 1814 (Primary HTS)]; type: functional; conditions: Homo sapiens
Nonstructural protein 1 = Nonstructural protein 1 (Influenza A virus, UniProt Q194T2); type: functional, Influenza A virus (A/California/07/2009(H1N1))
[12] = microbe, parasite or virus in culture; type: functional; conditions: Mycobacterium tuberculosis
[13] = viability of PTEN-deleted HCT116 cells – cell-based, HCT116 PTEN knockout, dose response (AID 1047); type: functional;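 also: HCT116 colon tumor cells with PTEN knocked out; cells exposed to compound for 60 hours before readout; potency for loss of cell viability measured by luminescence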
[14] = viability of HCT116 lacking mutant beta-catenin – cell-based, human colon tumor, dose response (AID 1045); type: functional;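 also: HCT116 colon tumor cells with beta catenin knocked out; cells exposed to compound for 60 hours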

T6 sequence (P49327 whole entry): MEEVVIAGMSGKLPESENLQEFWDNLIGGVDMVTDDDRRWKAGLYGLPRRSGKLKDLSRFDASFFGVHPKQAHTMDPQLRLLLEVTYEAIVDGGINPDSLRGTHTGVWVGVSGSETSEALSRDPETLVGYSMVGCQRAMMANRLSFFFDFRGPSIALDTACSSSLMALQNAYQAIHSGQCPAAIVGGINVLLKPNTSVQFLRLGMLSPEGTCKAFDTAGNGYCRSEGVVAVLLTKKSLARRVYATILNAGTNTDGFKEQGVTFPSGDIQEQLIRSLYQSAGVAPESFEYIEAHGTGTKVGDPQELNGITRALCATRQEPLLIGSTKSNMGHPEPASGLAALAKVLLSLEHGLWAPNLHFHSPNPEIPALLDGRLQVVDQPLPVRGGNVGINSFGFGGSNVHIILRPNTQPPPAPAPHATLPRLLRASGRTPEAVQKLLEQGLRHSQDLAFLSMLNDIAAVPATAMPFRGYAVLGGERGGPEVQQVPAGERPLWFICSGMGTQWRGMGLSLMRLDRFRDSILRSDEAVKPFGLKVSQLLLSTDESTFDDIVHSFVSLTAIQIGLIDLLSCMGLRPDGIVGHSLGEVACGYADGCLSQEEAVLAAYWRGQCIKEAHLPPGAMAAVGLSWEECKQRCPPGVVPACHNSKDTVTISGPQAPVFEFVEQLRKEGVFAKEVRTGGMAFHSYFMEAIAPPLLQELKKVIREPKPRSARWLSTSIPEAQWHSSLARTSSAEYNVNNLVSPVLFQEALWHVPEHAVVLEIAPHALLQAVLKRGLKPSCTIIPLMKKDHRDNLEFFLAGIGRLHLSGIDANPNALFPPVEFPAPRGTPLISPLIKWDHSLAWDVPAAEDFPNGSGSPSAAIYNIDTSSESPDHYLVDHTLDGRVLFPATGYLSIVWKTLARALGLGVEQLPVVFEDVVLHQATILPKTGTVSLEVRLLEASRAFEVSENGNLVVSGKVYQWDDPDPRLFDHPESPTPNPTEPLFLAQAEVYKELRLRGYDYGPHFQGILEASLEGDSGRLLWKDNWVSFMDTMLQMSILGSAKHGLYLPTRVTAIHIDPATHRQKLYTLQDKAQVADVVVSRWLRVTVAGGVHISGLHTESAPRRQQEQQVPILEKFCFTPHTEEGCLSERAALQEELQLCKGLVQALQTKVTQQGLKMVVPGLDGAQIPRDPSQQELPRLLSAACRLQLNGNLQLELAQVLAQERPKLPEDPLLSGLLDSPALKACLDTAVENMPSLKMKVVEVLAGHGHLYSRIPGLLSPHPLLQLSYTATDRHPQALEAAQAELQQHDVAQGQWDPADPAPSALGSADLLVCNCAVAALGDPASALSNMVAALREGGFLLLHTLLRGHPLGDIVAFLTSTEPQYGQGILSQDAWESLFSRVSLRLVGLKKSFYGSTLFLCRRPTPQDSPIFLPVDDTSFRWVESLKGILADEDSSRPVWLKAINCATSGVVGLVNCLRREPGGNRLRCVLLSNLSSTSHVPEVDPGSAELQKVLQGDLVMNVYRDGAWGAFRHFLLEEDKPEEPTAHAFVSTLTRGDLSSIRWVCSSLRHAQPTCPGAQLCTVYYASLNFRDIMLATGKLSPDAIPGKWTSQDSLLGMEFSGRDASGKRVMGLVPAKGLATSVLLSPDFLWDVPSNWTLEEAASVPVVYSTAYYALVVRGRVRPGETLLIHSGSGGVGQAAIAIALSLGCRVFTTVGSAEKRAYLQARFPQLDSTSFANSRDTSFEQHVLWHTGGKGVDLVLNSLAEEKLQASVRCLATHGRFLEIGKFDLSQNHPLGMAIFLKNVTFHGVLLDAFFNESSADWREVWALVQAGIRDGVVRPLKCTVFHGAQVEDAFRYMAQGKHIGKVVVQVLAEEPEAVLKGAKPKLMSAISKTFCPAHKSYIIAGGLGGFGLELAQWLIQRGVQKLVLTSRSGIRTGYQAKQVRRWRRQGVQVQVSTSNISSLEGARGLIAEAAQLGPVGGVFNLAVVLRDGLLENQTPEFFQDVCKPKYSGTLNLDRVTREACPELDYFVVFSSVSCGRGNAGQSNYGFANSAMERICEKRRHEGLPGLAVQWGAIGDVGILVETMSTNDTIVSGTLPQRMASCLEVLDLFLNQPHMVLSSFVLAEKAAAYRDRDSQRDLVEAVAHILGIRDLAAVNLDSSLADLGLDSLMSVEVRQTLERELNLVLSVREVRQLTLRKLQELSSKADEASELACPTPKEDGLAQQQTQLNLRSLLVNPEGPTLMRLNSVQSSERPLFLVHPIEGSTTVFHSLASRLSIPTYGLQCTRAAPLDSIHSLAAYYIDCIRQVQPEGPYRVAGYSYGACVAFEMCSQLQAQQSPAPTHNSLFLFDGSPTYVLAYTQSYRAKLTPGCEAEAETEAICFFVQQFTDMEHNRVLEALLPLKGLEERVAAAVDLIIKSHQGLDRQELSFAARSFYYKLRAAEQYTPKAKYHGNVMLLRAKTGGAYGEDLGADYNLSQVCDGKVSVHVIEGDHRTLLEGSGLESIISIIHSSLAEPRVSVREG
T5 sequence (P11940 whole entry, the tested form may be a part): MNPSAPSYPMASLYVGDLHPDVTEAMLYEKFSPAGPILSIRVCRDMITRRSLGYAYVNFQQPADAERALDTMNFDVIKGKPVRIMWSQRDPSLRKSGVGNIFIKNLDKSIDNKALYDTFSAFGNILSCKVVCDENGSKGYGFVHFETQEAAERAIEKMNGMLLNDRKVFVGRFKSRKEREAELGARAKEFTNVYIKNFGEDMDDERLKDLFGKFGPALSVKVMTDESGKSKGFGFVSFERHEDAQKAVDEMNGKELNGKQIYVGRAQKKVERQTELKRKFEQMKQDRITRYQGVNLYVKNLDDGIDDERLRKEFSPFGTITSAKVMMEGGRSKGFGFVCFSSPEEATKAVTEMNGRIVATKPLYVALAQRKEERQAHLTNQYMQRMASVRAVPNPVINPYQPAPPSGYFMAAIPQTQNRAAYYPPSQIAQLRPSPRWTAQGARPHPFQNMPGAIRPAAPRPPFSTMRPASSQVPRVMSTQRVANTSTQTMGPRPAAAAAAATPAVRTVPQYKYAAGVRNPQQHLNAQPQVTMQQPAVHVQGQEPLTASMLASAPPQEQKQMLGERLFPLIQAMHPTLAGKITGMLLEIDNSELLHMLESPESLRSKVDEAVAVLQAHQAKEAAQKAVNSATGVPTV
Sequence of Nonstructural protein 1 (Q194T2 whole entry): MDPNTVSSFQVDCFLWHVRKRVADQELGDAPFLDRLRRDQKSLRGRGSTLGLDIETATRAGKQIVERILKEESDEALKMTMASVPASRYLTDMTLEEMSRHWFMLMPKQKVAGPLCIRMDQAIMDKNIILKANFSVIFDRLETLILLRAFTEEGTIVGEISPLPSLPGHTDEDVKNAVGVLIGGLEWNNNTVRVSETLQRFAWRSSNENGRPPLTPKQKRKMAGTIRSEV
Sequence of DNA dC->dU-editing enzyme APOBEC-3G (Q9HC16 whole entry): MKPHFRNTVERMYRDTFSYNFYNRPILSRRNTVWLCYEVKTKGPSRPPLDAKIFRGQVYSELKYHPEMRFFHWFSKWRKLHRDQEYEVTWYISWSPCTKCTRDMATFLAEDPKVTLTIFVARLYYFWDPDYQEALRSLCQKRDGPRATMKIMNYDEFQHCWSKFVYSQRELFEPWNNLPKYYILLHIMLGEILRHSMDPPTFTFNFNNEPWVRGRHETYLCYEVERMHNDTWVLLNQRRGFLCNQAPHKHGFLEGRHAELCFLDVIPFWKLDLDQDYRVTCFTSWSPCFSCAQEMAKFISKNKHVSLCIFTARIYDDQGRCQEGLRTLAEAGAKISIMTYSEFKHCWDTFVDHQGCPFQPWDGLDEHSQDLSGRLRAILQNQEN
Sequence of DNA dC->dU-editing enzyme APOBEC-3A (P31941 whole entry): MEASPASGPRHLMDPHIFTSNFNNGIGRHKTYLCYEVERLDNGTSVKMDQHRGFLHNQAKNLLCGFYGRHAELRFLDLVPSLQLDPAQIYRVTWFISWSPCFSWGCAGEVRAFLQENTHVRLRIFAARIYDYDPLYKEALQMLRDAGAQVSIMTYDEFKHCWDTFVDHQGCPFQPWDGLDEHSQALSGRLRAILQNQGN

CCCCCC(O)CCc1nnc(S)n1-c1ccccc1 (stereo not given)
IC50 [1]: 6.33 µM (active)
IC50 [2]: > 100 µM (inactive)

COc1cc(NC(=O)COc2ccc(-n3cnnn3)cc2)c(OC)cc1Cl
IC50 (Estrogen receptor): 8.31 µM (active)

O=C(Nc1cc[n+](-c2nc3ccccc3nc2[N-]S(=O)(=O)c2ccc(Cl)cc2)cc1)c1cccs1
EC50 [3]: > 99 µM (inactive)
EC50 [4]: > 99 µM (inactive)

CCN1CCN(Cc2ccc(NC(=O)Nc3ccc(OC)cc3)cc2)CC1
IC50 (Leucine aminopeptidase): 25.1 µM (active)

O=C(O)CCCNC(=O)/C(=C\C=C\c1ccccc1)NC(=O)c1ccccc1Cl
IC50 (Leucine aminopeptidase): 86.8 µM (active)

FC(F)(F)c1nc(N2CCCC2)ncc1-c1nnnn1-c1ccc(Cl)cc1
EC50 [5]: 14.6 µM (active)

COc1ccc(-n2c(SCC(=O)Nc3ccc4c(c3)OCO4)nnc2C(C)N2CCCCC2)cc1 (stereo not given)
IC50 (Estrogen receptor): > 50 µM (not active)

O=C(OCCNc1ccc(C(F)(F)F)cc1[N+](=O)[O-])c1cc2ccccc2oc1=O
EC50 [3]: 89.7 µM (inactive)
EC50 [4]: 27.7 µM (inactive)

O=C(NN1C(=O)c2ccccc2NC1c1ccccn1)c1ccccc1 (stereo not given)
IC50 (Aminopeptidase N): 81.1 µM (active)

Cc1ccc(NC(=O)CC2SC3=NCCN3C2=O)cc1 (stereo not given)
IC50 [6]: > 66 µM (inactive)
IC50 [7]: > 66 µM (inactive)

NC(=O)CSc1nnc(-c2cc(-c3cccs3)nc3ccccc23)o1
EC50 [3]: > 99 µM (inactive)
EC50 [4]: > 99 µM (inactive)

O=C(O)c1cccc(S(=O)(=O)Nc2ccc(O)cc2Sc2nc3ccccc3s2)c1
IC50 (Leucine aminopeptidase): 9.02 µM (active)

O=C(c1ccc([N+](=O)[O-])cc1)N1CCC(Cc2ccccc2)CC1
IC50 (Fatty acid synthase [8]): 10.9 µM (active)
IC50 (Fatty acid synthase [9]): 8.61 µM (active)

Cc1ccccc1NC(=O)N1CCCC(c2nc(-c3ccc(C(C)C)cc3)no2)C1 (stereo not given)
EC50 [10]: 5.18 µM (active)
EC50 [11]: 0.157 µM (active)
EC50 [5]: 8.11 µM (active)
EC50 (H4): 23.1 µM (active)

CCN1C(=O)/C(=C/NNC(=O)c2ccncc2)C(=O)NC1=S
IC50 (Aminopeptidase N): 85.1 µM (active)
IC50 (Nonstructural protein 1): 13.3 µM (active)

Cc1cccc(NC(=O)CSc2nc3ccccc3o2)c1
EC50 [5]: 4.44 µM (active)

CCC1CCCCN1C(=S)NC(=O)c1cccc([N+](=O)[O-])c1 (stereo not given)
IC50 [6]: > 66 µM (inactive)
IC50 [7]: > 66 µM (inactive)

CCNS(=O)(=O)c1ccc(CCC(=O)NCc2ccccc2)cc1
IC50 (Aminopeptidase N): 60.1 µM (active)

COc1ccc(OCCNc2cc(Cl)ccc2[N+](=O)[O-])cc1
EC50 [3]: > 99 µM (inactive)
EC50 [4]: > 99 µM (inactive)

O=C(CSc1ccc([N+](=O)[O-])cn1)Nc1ccc2c(c1)OCO2
IC50 (Fatty acid synthase [8]): 0.981 µM (active)
IC50 (Fatty acid synthase [9]): 0.951 µM (active)

NC(Cc1ccc([N+](=O)[O-])cc1)=NOC(=O)c1ccc2ccccc2c1
IC50 (Estrogen receptor): > 50 µM (not active)
CC50 [12]: 33 µM (active)

COc1ccccc1OCC(=O)Sc1ccc(C)cc1
IC50 [6]: > 66 µM (inactive)
IC50 [7]: > 66 µM (inactive)

COc1ccc(C2NC(=O)c3sc(=S)n(-c4ccccc4)c3N2)cc1 (stereo not given)
EC50 [13]: 21.6 µM (active)
EC50 [14]: 22.6 µM (active)
EC50 [5]: 1.23 µM (active)

COc1cc(CNc2nc[nH]n2)cc(Br)c1OC
IC50 (Leucine aminopeptidase): 8.2 µM (active)

CC(=O)Nc1ccc2nc(-c3ccccn3)[nH]c2c1
IC50 (Aminopeptidase N): 94 µM (active)

O=C(NNC(=S)NCCc1ccccc1)c1ccc(Br)s1
IC50 (Aminopeptidase N): 9.19 µM (active)

O=[N+]([O-])c1cc(S(=O)(=O)Nc2cccc(C(F)(F)F)c2)ccc1-n1nnc2ccccc21
IC50 (Fatty acid synthase [8]): 7.12 µM (active)
IC50 (Fatty acid synthase [9]): 4.72 µM (active)
EC50 [5]: 3.52 µM (active)

O=[N+]([O-])c1ccc(S(=O)(=O)Nc2ccc(-c3ccccc3)cc2)cc1
IC50 (Fatty acid synthase [8]): 5.95 µM (active)
IC50 (Fatty acid synthase [9]): 6.47 µM (active)

C/C(=N\NC(=S)NCCc1ccccc1)c1cccc(Br)c1
IC50 [6]: > 66 µM (inactive)
IC50 [7]: > 66 µM (inactive)
